Experimental data as given in patent publication US6492137B1, “Response element compositions and assays employing same” (The Salk Institute for Biological Studies, priority 1989, dated 2002).

Legend:
TRβ = target: T1, TRβ (Homo sapiens, UniProt P10828); experiment: Gel retardation DNA-binding assay with TRβ-expressing COS cell extracts; design: expressed in transfected cells; host or cells: COS cells (whole-cell extract)
T1 sequence (P10828 1-461): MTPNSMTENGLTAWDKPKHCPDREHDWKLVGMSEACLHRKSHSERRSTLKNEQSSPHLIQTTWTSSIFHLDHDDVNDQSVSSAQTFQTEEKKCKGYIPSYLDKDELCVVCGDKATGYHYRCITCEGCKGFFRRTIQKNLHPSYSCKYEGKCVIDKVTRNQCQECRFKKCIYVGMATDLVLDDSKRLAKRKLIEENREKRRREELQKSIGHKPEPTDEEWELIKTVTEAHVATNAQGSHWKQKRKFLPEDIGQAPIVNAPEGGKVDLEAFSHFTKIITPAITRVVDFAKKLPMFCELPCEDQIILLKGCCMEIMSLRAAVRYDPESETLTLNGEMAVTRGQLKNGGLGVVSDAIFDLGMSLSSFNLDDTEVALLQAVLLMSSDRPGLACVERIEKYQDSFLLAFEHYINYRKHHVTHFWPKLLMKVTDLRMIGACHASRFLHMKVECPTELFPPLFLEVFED
Outline: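 Extracts of COS cells transfected with pCMX TRβ expression plasmid, 48 h post-transfection; 5 μg protein pre-incubated on ice 20 min with poly dI/dC, then 40 fmole 32P-labelled oligonucleotide 30 min at room temperature. Complexes resolved on 5% polyacrylamide gel.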

endogenous RA receptor [1] = experiment: Delta-MTV-CAT constructs, RA induction in CV-1 cells without cotransfected RAR expression vector; type: cell-based, monkey
Experimental: (§1) Cells were transfected in 10 cm dishes with 10 μg of DNA containing 5 μg of reporter plasmid, 1-2 μg of either RSV-LUC (a), or RSV-βGAL or pCH110 (c and d), pGEM4 as carrier DNA, and for the experiments shown in a and d, 1 μg of RSV-RAR expression vector or the same amount of an RSV vector generating a nonsense transcript. Cells were harvested 1 day after addition of retinoic acid. All CAT assays represent equivalent amounts of β-galactosidase activity; β-GAL assays were normalized to luciferase activity.

endogenous RA receptor [2] = experiment: Survey of cell lines for RA-dependent transactivation of the βRARE without transfected RAR; type: cell-based; conditions: CV-1, F9, P19, CHO, HeLa, NIH 3T3, Rat2 fibroblasts, HT1080.T, chick embryo fibroblasts, quail QT6 cells
RARα = target: T2, RARα (Homo sapiens, UniProt P10276); experiment: Gel retardation DNA-binding assay with RARα-expressing COS cell extracts; design: expressed in transfected cells; host or cells: COS cells (whole-cell extract)
T2 sequence (P10276 1-462): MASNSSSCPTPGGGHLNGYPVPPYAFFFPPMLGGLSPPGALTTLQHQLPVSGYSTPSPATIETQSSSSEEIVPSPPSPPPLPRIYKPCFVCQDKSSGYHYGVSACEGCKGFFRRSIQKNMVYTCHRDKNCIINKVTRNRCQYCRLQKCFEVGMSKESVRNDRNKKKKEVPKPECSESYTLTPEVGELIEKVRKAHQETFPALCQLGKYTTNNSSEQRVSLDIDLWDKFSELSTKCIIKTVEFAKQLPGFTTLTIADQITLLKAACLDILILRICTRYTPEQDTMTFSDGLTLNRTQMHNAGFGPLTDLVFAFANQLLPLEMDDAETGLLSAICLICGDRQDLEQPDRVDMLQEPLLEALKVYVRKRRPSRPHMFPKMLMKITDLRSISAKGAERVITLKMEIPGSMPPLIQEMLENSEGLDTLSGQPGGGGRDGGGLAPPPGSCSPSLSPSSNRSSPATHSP
Experimental: For DNA binding assays, COS cells were cultured in DMEM with 10% calf bovine serum and transfected by the calcium phosphate method with 20 μg of the pCMX receptor expression plasmid for 6 hours followed by a glycerol shock. After incubating the transfected COS cells for another 48 hours, the cells were harvested to prepare extracts for the DNA binding assay, carried out as described by Damm et al., Nature 339: 593-597 (1989). The extracts were made in 20 mM HEPES (pH 7.4), 0.4 M KCl, 2 mM DTT and 20% glycerol. A similar method was employed to prepare a whole cell extract from F9 stem cells. For the binding, 5 μg (COS) or 10 μg (F9) of proteins was incubated on ice for 20 minutes, first in 20 mM HEPES, 80 mM KCl, 1 mM DTT, 0.1% NP40, 2.5 μg of poly dI/dC, and 10% glycerol (cold competitor oligonucleotides, when included, were added during this pre-incubation period). Then 40 fmole of ^32P-labeled oligonucleotide probe (1-2×10^5 cpm, prepared by filling-in reaction using Klenow polymerase in the presence of α-^32P-dCTP) was added to the reaction mixture, followed by incubation at room temperature for 30 minutes. The receptor-DNA complexes were resolved by electrophoresis through 5% polyacrylamide gel containing 5% glycerol at 6 V/cm at room temperature.
Oligonucleotides listed in FIG. 3 were used as a probe to test specific DNA-binding of the RARα and TRβ in a gel retardation assay. On the βRARE, a faint background binding activity was detected in the mock transfected COS cell extract. […] In each case the result obtained from in vivo transactivation and in vitro DNA binding are consistent.
Using the mobility shift assay, the DNA-binding capacity of extracts from COS cells expressing TRβ and RARα to these sequences was also tested. […] This pattern is consistent with that of the in vivo activation (FIG. 4). A reciprocal pattern was obtained when the same oligonucleotides were used to compete RARα binding to the ^32P-labeled βRARE. […] This provides a striking example of the role of half-site spacing in generating a functional response element.

RAR = target: T3, RAR (Homo sapiens, UniProt P10276); experiment: Delta-MTV constructs, RA induction in CV-1 cells with cotransfected RAR expression vector; type: cell-based; conditions: Delta-MTV-CAT constructs; CV-1 cells
T3 construct: expressed in transfected cells; host or cells: CV-1 (monkey kidney)
T3 sequence (P10276 1-462): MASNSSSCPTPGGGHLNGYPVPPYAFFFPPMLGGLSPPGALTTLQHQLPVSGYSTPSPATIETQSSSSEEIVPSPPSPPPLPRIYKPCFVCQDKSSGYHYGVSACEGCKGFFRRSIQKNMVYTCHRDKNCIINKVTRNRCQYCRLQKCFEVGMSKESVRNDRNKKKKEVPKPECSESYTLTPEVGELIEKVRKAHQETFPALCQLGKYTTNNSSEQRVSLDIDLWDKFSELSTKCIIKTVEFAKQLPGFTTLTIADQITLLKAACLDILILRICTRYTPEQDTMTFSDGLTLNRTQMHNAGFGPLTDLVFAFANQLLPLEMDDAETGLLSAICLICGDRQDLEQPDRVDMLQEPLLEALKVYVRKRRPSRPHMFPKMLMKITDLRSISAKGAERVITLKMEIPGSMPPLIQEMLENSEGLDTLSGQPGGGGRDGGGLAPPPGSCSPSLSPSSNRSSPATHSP
Experimental: Inspection of the sequences of βRE1, βRE2, and βRE3 (see FIG. 2b) identifies a tandem repeat of the 6 bp motif. The center to center separation of 11 bp between these repeats is one turn of the DNA helix. […] Apparently, a single half site element of the RARβ gene would reciprocally be responsive to the TR, ER, and/or other members of the receptor superfamily.
as §1

[3] = target: T4, Thyroid hormone receptor beta (TRβ), in CV-1 cells (Homo sapiens, UniProt P10828 P10828:1-461); experiment: cell_activity; T3 100 nM, CV-1; conditions: tags: pRShTRβ; label: 32P; 5'-agct overhangs
T4 sequence: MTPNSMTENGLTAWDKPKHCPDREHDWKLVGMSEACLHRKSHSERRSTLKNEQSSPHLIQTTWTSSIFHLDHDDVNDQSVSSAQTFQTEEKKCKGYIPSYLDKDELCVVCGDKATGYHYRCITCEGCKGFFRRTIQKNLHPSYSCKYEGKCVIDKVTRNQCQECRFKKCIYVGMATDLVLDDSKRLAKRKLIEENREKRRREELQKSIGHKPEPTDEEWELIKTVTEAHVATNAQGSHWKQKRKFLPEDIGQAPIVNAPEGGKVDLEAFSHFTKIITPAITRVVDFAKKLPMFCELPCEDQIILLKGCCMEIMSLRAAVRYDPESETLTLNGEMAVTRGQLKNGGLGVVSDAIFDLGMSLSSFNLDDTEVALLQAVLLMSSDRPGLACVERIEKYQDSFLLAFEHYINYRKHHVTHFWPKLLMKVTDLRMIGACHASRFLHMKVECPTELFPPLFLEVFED
Experimental: (§2) For cotransfection assays, a monkey kidney cell line CV-1 was kept in Dulbecco's modified Eagle's medium (DMEM) supplemented with 10% charcoal-resin double split calf bovine serum. Transfections were performed via calcium-phosphate precipitation method as described by Umesono, et al. in Cell 57: 1139–1146 (1989), with 0.5 μg of a pRS receptor expression plasmid, 1.0 μg of a reporter CAT plasmid, 5 μg of pRAS-βGAL [Umesono, et al., Cell 57: 1139–1146 (1989)] as an internal control, and 8.5 μg of carrier plasmid pUC19. The cells were transfected for 8 hours; after washing the DNA precipitates, the cells were then incubated for an additional 36 hours with or without the ligand (T_3, 100 nM; RA, 1 μM; 1,25-(OH)_2 vitamin D_3, 100 nM). Cell extracts were prepared for βGAL and CAT assays, as described by Umesono, et al., supra. Transfection of F9 teratocarcinoma cells was carried out employing a similar method except the cells were incubated for 12 hours in the presence of the DNA precipitates, and the RA was added at 1 μM for another 24 hours before harvesting the cells. 2, 5, and 4 μg of the reporter, pRAS-βGAL, and pUC19 were used, respectively.
(§3) The above strategies were used to test both in vivo transactivation and in vitro DNA-binding of these artificial HREs for TRβ, RARα, and VDR. […]

[4] = target: T5, Vitamin D receptor (VDR), in CV-1 cells (Homo sapiens, UniProt P11473 P11473:1-427); experiment: cell_activity; vitamin D3 100 nM, CV-1; conditions: tags: pRShVDR; label: 32P; 5'-agct overhangs
T5 sequence: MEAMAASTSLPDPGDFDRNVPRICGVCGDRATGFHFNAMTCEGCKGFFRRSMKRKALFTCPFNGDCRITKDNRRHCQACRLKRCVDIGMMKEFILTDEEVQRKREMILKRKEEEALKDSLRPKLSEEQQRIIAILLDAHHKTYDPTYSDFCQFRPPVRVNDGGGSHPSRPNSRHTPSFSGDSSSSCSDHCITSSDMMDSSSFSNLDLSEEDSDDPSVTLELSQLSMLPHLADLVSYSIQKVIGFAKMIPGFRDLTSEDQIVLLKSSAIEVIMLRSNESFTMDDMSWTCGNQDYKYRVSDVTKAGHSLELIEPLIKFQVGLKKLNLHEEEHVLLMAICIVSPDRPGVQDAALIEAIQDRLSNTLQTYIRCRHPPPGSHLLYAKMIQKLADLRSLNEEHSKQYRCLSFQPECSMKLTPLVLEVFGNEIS
Experimental: as §2, §3

[5] = target: T6, Retinoic acid receptor alpha (RARα), in CV-1 cells (Homo sapiens, UniProt P10276 P10276:1-462); experiment: cell_activity; RA 1 µM, CV-1; conditions: tags: RSV or pRS expression vector; label: 32P; 5'-agct overhangs
T6 sequence: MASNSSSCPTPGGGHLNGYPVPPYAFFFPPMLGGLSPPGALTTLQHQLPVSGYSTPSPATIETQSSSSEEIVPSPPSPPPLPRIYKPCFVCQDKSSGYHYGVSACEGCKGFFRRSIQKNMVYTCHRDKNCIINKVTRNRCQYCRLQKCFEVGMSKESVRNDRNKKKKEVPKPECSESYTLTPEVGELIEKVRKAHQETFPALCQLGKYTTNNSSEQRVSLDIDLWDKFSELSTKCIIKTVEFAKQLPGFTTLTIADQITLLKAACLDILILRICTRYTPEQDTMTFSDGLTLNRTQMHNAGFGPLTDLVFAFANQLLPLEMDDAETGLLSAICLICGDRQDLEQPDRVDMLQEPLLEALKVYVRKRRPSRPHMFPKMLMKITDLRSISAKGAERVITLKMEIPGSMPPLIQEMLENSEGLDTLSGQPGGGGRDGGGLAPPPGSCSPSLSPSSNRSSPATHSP
Experimental: as §2, §3

5′-AAGCTTAAG-GGTTCA-CCGAA-AGTTCA-CTCGCATAGCTT-3′ (SEQ ID NO:6) (AAGCTTAAGGGTTCACCGAAAGTTCACTCGCATAGCTT; DNA, backbone not given here) [βRE2, oligonucleotide including the β retinoic acid response element; βRARE corresponds to βRE2]
TRβ binding to labeled oligonucleotide probe (TRβ; gel retardation, TRβ COS cell extract): weak, yet detectable binding activity
competition for TRβ binding (mobility shift assay) (TRβ; unlabeled competitor oligonucleotide, COS cells expressing TRβ): poor competitors
RA-dependent induction in the absence of cotransfected RAR expression vector (endogenous RA receptor [1]): robust RA-dependent induction
RA-dependent transactivation in the absence of transfected RAR expression vector (endogenous RA receptor [2]): efficiently transactivate
RARα binding to labeled oligonucleotide probe (RARα; gel retardation, RARα COS cell extract): dramatically enhanced
competition for RARα binding to 32P-labeled βRARE (RARα; unlabeled competitor oligonucleotide, COS cell extracts): effective competitors
increase of induction by cotransfection of RAR-alpha expression vector (RAR): two-fold

B1: DR-4 (dsDNA)
DNA 1: AGCTTCAGGTCACAGGAGGTCAGAGAGCT
DNA 2: AGCTCTCTGACCTCCTGTGACCTGAAGCT
activity [3]: 22 fold induction

B2: DR-3 (dsDNA)
DNA 1: AGCTTCAGGTCAAGGAGGTCAGAGAGCT
DNA 2: AGCTCTCTGACCTCCTTGACCTGAAGCT
activity [4]: 8.3 fold induction

B3: DR-5 (dsDNA)
DNA 1: AGCTTCAGGTCACCAGGAGGTCAGAGAGCT
DNA 2: AGCTCTCTGACCTCCTGGTGACCTGAAGCT
activity [5]: 9 fold induction
